Reference: ChEMBL document CHEMBL5316298, “Discovery of Amphiphilic Xanthohumol Derivatives as Membrane-Targeting Antimicrobials against Methicillin-Resistant Staphylococcus aureus” (J Med Chem, 2023)
Calls of active or inactive are those of the source. The calls are words filed in the database; no cut-off is given here.

Columns and labels:
[1] = Toxicity in KM mouse assessed as effect on creatinine level at 20 mg/kg, sc administered into middle dorsum and measured after 24 hrs by routine blood test; assay type: organism-based; conditions: in vivo
Cell membrane [2] = experiment: Disruption of membrane integrity in methicillin-resistant Staphylococcus aureus 3 assessed as increase in red fluorescence at 8 times MIC incubated for 4 hrs by DAPI/PI staining based laser confocal microscopic analysis; assay type: subcellular
Cell membrane [3] = experiment: Disruption of membrane integrity in methicillin-resistant Staphylococcus aureus 3 assessed as increase in protein leakage at 1 to 8 times MIC incubated for 4 hrs by microspectrophotometer analysis; assay type: subcellular
Staphylococcus aureus [4] = experiment: Antibacterial activity against methicillin-resistant Staphylococcus aureus 3 infected in KM mouse assessed as reduction in size of abscesses at 5 mg/kg administered into skin infection site measured after 24 hrs; assay type: functional, organism-based
[5] = Toxicity in KM mouse infected with methicillin-resistant Staphylococcus aureus 3 assessed as multifocal enlargement of hepatocytes with cytoplasmic foamy swelling at 5 to 10 mg/kg administered into skin infection site measured after 24 hrs by H and E staining based analysis; assay type: organism-based; conditions: in vivo, topical_or_ocular, dose 5-10 mg/kg
Staphylococcus aureus [6] = experiment: Antibacterial activity against methicillin-resistant Staphylococcus aureus clinical isolate 9 incubated for 16 to 18 hrs by CLSI-based microbroth dilution method; assay type: functional; conditions: time 16-18 hrs
Staphylococcus aureus [7] = experiment: Bactericidal activity against methicillin-resistant Staphylococcus aureus 3 incubated for 6 hrs in presence of 50% sheep plasma; assay type: functional, organism-based
[8] = Toxicity in KM mouse assessed as pathological changes in lungs at 20 mg/kg, sc administered into middle dorsum and measured after 24 hrs by H and E staining based analysis; assay type: organism-based; conditions: in vivo
[9] = Toxicity in KM mouse assessed as effect on hematocrit level at 20 mg/kg, sc administered into middle dorsum and measured after 24 hrs by routine blood test; assay type: organism-based; conditions: in vivo
Cell membrane [10] = experiment: Disruption of membrane integrity in methicillin-resistant Staphylococcus aureus 3 assessed as increase in DNA leakage at 1 to 8 times MIC incubated for 4 hrs by microspectrophotometer analysis; assay type: subcellular
Staphylococcus aureus [11] = experiment: Antibacterial activity against methicillin-resistant Staphylococcus aureus 3 infected in KM mouse assessed as reduction in skin lesions/abscesses in subcutaneous tissue at 10 mg/kg administered into skin infection site measured after 24 hrs; assay type: functional, organism-based
[12] = Toxicity in KM mouse assessed as pathological changes in liver at 20 mg/kg, sc administered into middle dorsum and measured after 24 hrs by H and E staining based analysis; assay type: organism-based; conditions: in vivo
[13] = Toxicity in KM mouse infected with methicillin-resistant Staphylococcus aureus 3 assessed as histopathological abnormalities in spleen at 5 to 10 mg/kg administered into skin infection site measured after 24 hrs by H and E staining based analysis; assay type: organism-based; conditions: in vivo, topical_or_ocular, dose 5-10 mg/kg
Cell membrane [14] = experiment: Disruption of membrane integrity in methicillin-resistant Staphylococcus aureus 3 assessed as appearance of ruptured cell surface at 16 ug/ml incubated for 240 mins by SEM analysis; assay type: subcellular; conditions: dose 16.0 µg/ml
[15] = Toxicity in KM mouse infected with methicillin-resistant Staphylococcus aureus 3 assessed as spleen damage at 5 to 10 mg/kg administered into skin infection site measured after 24 hrs by H and E staining based analysis; assay type: organism-based; conditions: in vivo, topical_or_ocular, dose 5-10 mg/kg
[16] = Toxicity in KM mouse assessed as effect on hemoglobin level at 20 mg/kg, sc administered into middle dorsum and measured after 24 hrs by routine blood test; assay type: organism-based; conditions: in vivo
Staphylococcus aureus [17] = experiment: Induction of drug resistance in Staphylococcus aureus ATCC 29213 assessed as increase in MIC at 0.5 times MIC measured for 20 passages; assay type: functional
[18] = Toxicity in KM mouse assessed as effect on WBC count at 20 mg/kg, sc administered into middle dorsum and measured after 24 hrs by routine blood test; assay type: organism-based; conditions: in vivo
Staphylococcus aureus [19] = experiment: Antibacterial activity against methicillin-resistant Staphylococcus aureus clinical isolate 5 incubated for 16 to 18 hrs by CLSI-based microbroth dilution method; assay type: functional; conditions: time 16-18 hrs
Staphylococcus aureus [20] = experiment: Bactericidal activity against Staphylococcus aureus ATCC 29213 at 4 times MIC by time kill assay; assay type: functional, organism-based; conditions: time 0-8 hrs, TDE = time-dependent effect
[21] = Toxicity in KM mouse assessed as effect on urea level at 20 mg/kg, sc administered into middle dorsum and measured after 24 hrs by routine blood test; assay type: organism-based; conditions: in vivo
Staphylococcus aureus [22] = experiment: Anti-MRSA activity against methicillin-resistant Staphylococcus aureus 3 incubated for 16 to 18 hrs in presence of 0 to 32 ug/ml phosphatidylglycerol by checkerboard broth dilution method; assay type: functional; conditions: time 16-18 hrs
Cell membrane [23] = experiment: Disruption of membrane integrity in methicillin-resistant Staphylococcus aureus 3 assessed as appearance of wrinkled cell surface at 16 ug/ml incubated for 240 mins by SEM analysis; assay type: subcellular; conditions: dose 16.0 µg/ml
Staphylococcus aureus [24] = experiment: Antibacterial activity against methicillin-resistant Staphylococcus aureus clinical isolate 3 incubated for 16 to 18 hrs by CLSI-based microbroth dilution method; assay type: functional; conditions: time 16-18 hrs
Staphylococcus aureus [25] = experiment: Antibacterial activity against methicillin-resistant Staphylococcus aureus clinical isolate 10 incubated for 16 to 18 hrs by CLSI-based microbroth dilution method; assay type: functional; conditions: time 16-18 hrs
Staphylococcus aureus [26] = experiment: Antibacterial activity against methicillin-resistant Staphylococcus aureus clinical isolate 4 incubated for 16 to 18 hrs by CLSI-based microbroth dilution method; assay type: functional; conditions: time 16-18 hrs
[27] = Toxicity in KM mouse infected with methicillin-resistant Staphylococcus aureus 3 assessed as liver damage at 5 to 10 mg/kg administered into skin infection site measured after 24 hrs by H and E staining based analysis; assay type: organism-based; conditions: in vivo, topical_or_ocular, dose 5-10 mg/kg
[28] = Toxicity in KM mouse infected with methicillin-resistant Staphylococcus aureus 3 assessed as swelling of renal tubular epithelial cells with granular degeneration at 5 to 10 mg/kg administered into skin infection site measured after 24 hrs by H and E staining based analysis; assay type: organism-based; conditions: in vivo, topical_or_ocular, dose 5-10 mg/kg
Staphylococcus aureus [29] = experiment: Bactericidal activity against methicillin-resistant Staphylococcus aureus 3 at 4 times MIC by plate colony counting method; assay type: functional, organism-based; conditions: time 0-8 hrs, TDE = time-dependent effect
Staphylococcus aureus [30] = experiment: Antibacterial activity against methicillin-resistant Staphylococcus aureus 3 infected in KM mouse assessed as reduction in bacterial load at infection site at 5 mg/kg administered into skin infection site measured after 24 hrs relative to control; assay type: functional; parameters: scale not given: the % may be the effect or the level left
Cell membrane [31] = experiment: Disruption of membrane integrity in methicillin-resistant Staphylococcus aureus 3 assessed as appearance of uneven cell surface at 16 ug/ml incubated for 240 mins by SEM analysis; assay type: subcellular; conditions: dose 16.0 µg/ml
[32] = Toxicity in KM mouse assessed as abnormalities in skin at 5 to 20 mg/kg, sc administered into middle dorsum and measured after 24 hrs; assay type: organism-based; conditions: in vivo, dose 5-20 mg/kg
[33] = Toxicity in KM mouse assessed as effect on RBC count at 20 mg/kg, sc administered into middle dorsum and measured after 24 hrs by routine blood test; assay type: organism-based, Erythrocyte; conditions: in vivo
Staphylococcus aureus [34] = experiment: Antibacterial activity against methicillin-resistant Staphylococcus aureus clinical isolate 1 incubated for 16 to 18 hrs by CLSI-based microbroth dilution method; assay type: functional; conditions: time 16-18 hrs
[35] = Toxicity in KM mouse assessed as swelling in skin at 40 to 80 mg/kg, sc administered into middle dorsum and measured after 24 hrs; assay type: organism-based; conditions: in vivo, dose 40-80 mg/kg
[36] = Toxicity in KM mouse infected with methicillin-resistant Staphylococcus aureus 3 assessed as vacuolar degeneration in the kidneys at 5 to 10 mg/kg administered into skin infection site measured after 24 hrs by H and E staining based analysis; assay type: organism-based; conditions: in vivo, topical_or_ocular, dose 5-10 mg/kg
[37] = Toxicity in KM mouse assessed as effect on albumin level at 20 mg/kg, sc administered into middle dorsum and measured after 24 hrs by routine blood test; assay type: organism-based; conditions: in vivo

## CCCN(CCC)C(=O)C[N+](C)(C)CCCCOc1ccc(/C=C/C(=O)c2c(OC)cc3c(c2O)C=CC(C)(C)O3)cc1.[Br-]
[1]
  Activity: Non-Toxic
Cell membrane [2]
  Activity: Active
Cell membrane [3]
  Activity: Dose-Dependent Effect
Staphylococcus aureus [4]
  Activity: Active
[5]
  Activity: Non-Toxic
Staphylococcus aureus [6]
  MIC: 2 µg/mL
Staphylococcus aureus [7]
  Activity: Active
[8]
  Activity: Non-Toxic
[9]
  Activity: Non-Toxic
Cell membrane [10]
  Activity: Dose-Dependent Effect
Staphylococcus aureus [11]
  Activity: Active
[12]
  Activity: Non-Toxic
[13]
  Activity: Non-Toxic
Cell membrane [14]
  Activity: Active
[15]
  Activity: Non-Toxic
[16]
  Activity: Non-Toxic
Staphylococcus aureus [17]
  Activity: inactive
[18]
  Activity: Non-Toxic
Staphylococcus aureus [19]
  MIC: 1 µg/mL
Staphylococcus aureus [20]
  Activity: Tde
[21]
  Activity: Non-Toxic
Staphylococcus aureus [22]
  MIC: 1 µg/mL
Cell membrane [23]
  Activity: Active
Staphylococcus aureus [24]
  MIC: 1 µg/mL
Staphylococcus aureus [25]
  MIC: 1 µg/mL
Staphylococcus aureus [26]
  MIC: 2 µg/mL
[27]
  Activity: Non-Toxic
[28]
  Activity: Non-Toxic
Staphylococcus aureus [29]
  Activity: Tde
Staphylococcus aureus [30]
  Activity: 99.905%
Cell membrane [31]
  Activity: Active
[32]
  Activity: Non-Toxic
[33]
  Activity: Non-Toxic
Staphylococcus aureus [34]
  MIC: 2 µg/mL
[35]
  Activity: Toxic
[36]
  Activity: Non-Toxic
[37]
  Activity: Non-Toxic
